The values below come from patent US20230257351A1, “SUBSTITUTED N-[…] HAVING P2X4 RECEPTOR ANTAGONISTIC ACTIVITY” (Bayer Aktiengesellschaft, priority 2020, published 2023).

One experiment deals with T1, human P2X4 (Homo sapiens, UniProt Q99571).
T1 construct: expressed in transfected cells
T1 sequence (Q99571 1-388): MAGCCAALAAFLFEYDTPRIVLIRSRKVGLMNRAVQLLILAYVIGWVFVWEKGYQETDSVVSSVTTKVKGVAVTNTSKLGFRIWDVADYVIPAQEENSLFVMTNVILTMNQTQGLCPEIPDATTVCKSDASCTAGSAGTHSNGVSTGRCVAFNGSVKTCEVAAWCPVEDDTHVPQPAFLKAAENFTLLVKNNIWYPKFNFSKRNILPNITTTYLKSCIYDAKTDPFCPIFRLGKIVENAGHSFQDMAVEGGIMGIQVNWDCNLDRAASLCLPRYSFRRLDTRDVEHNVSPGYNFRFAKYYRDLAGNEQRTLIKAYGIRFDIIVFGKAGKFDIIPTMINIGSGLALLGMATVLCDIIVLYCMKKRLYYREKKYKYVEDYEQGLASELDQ
Put plainly: Human P2X4 HEK Cell FLIPR Assay. The experiment is classed as cell-based. Particulars: HEK293 stably expressing human P2X4, agonist Bz-ATP 3 μM (EC80); for IC50: read-out: Human P2X4 HEK Cells (FLIPR Assay) avg IC50. The gist of the method:
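HEK293 cells stably expressing human P2X4 were loaded with Fluo8-AM (30 min, 37 °C, HBSS/HEPES pH 7.4 with probenecid), then preincubated 30 min at room temperature with compound, 25 μM–1 nM final, 0.5% DMSO. Bz-ATP-evoked calcium fluorescence was read on FLIPR; data were normalized to agonist control and given a four-parameter fit for IC50.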

A further experiment addresses T2, rat P2X4 (Rattus norvegicus, UniProt P51577).
T2 construct: expressed in transfected cells
T2 sequence (P51577 1-388): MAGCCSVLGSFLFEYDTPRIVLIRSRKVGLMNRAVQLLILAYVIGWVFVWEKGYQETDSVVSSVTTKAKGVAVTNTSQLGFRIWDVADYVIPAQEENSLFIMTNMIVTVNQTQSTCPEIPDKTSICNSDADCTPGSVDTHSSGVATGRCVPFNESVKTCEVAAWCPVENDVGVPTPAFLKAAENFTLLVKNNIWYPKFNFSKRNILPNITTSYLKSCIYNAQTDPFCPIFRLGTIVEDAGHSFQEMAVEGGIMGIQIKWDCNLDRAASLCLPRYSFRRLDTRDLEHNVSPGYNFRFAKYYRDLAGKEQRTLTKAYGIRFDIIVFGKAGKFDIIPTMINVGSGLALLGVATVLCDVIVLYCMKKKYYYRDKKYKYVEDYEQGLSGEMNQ
Put plainly: FLIPR Method for Rat P2X4 1321N1 Astrocytoma Cells. Particulars: 1321N1 stably expressing rat P2X4; agonist MgATP 5 μM (EC80). The experiment is classed as cell-based. The gist of the method:
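1321N1 cells stably expressing rat P2X4, Fluo8-AM loaded; compounds (25 μM to 1 nM final, ten concentrations) preincubated 30 min at room temperature, then MgATP added at 5 μM (EC80). Calcium fluorescence read on FLIPR before and after agonist; triplicate data normalized to agonist control, four-parameter fit gives IC50.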

What is called IC50 is the concentration that inhibits the measured activity by half. Regarding `CC(=O)N(c1ccc(F)c(F)c1)c1cc(NC(=O)Cc2ccccc2OC(F)(F)F)ccn1` [Example 76, N-(3,4-difluorophenyl)-N-(4-{2-[2-(trifluoromethoxy)phenyl]acetamido}pyridin-2-yl)acetamide], at human P2X4, the “Human P2X4 HEK Cells (FLIPR Assay) avg Efficacy” value (from here on “Human P2X4 HEK Cells”) was determined as 97% and the half-inhibitory concentration (IC50) worked out at 397 nM. Further, at rat P2X4, the half-inhibitory concentration (IC50) came to 667 nM and the “Rat P2X4 1321N1 Astrocytoma Cells (FLIPR Assay) avg Efficacy” value (shortened to “Rat P2X4 1321N1 Astrocytoma Cells”) worked out at 99%.
Consider `COc1ccc(N(C(C)=O)c2cc(NC(=O)Cc3ccccc3Cl)ccn2)cc1F` [Example 77, N-{4-[2-(2-chlorophenyl)acetamido]pyridin-2-yl}-N-(3-fluoro-4-methoxyphenyl)acetamide], for which, on human P2X4, the “Human P2X4 HEK Cells” value was 94% and the half-maximal inhibitory concentration (IC50) came out at 354 nM. Besides, at rat P2X4, the concentration for half-maximal inhibition (IC50) worked out at 993 nM and the “Rat P2X4 1321N1 Astrocytoma Cells” value stood at 84%.
Turning to `COc1ccc(N(C(C)=O)c2cc(NC(=O)Cc3cccc(F)c3Cl)ccn2)cc1F` [Example 79, N-{4-[2-(2-chloro-3-fluorophenyl)acetamido]pyridin-2-yl}-N-(3-fluoro-4-methoxyphenyl)acetamide], on human P2X4, the “Human P2X4 HEK Cells” value came to 97% and the IC50 was determined as 399 nM. At rat P2X4, the IC50 turned out to be 1110 nM and the “Rat P2X4 1321N1 Astrocytoma Cells” value is on record as 96%.
For `COc1ccc(N(C(C)=O)c2cc(NC(=O)Cc3c(Cl)cccc3Cl)ccn2)cc1F` [Example 80, N-{4-[2-(2,6-dichlorophenyl)acetamido]pyridin-2-yl}-N-(3-fluoro-4-methoxyphenyl)acetamide], on human P2X4, the “Human P2X4 HEK Cells” value is given as 99% and the IC50 was 451 nM. Further, on rat P2X4, the IC50 worked out at 338 nM and the “Rat P2X4 1321N1 Astrocytoma Cells” value was determined as 97%.
`CC(=O)N(c1cc(F)cc(F)c1)c1cc(NC(=O)Cc2cccc(C)c2C)ccn1` [Example 83, N-(3,5-difluorophenyl)-N-{4-[2-(2,3-dimethylphenyl)acetamido]pyridin-2-yl}acetamide]: on human P2X4, the “Human P2X4 HEK Cells” value is given as 97% and the 50% inhibitory concentration (IC50) worked out at 350 nM. At rat P2X4, the 50% inhibitory concentration (IC50) came out at 143 nM and the “Rat P2X4 1321N1 Astrocytoma Cells” value is 90%.
As to `CC(=O)N(c1cc(F)cc(F)c1)c1cc(NC(=O)Cc2ccccc2C(F)(F)F)ccn1` [Example 84, N-(3,5-difluorophenyl)-N-(4-{2-[2-(trifluoromethyl)phenyl]acetamido}pyridin-2-yl)acetamide], at human P2X4, the “Human P2X4 HEK Cells” value was determined as 100% and the half-maximal inhibitory concentration (IC50) amounted to 314 nM. Besides, on rat P2X4, the 50% inhibitory concentration (IC50) came out at 1030 nM and the “Rat P2X4 1321N1 Astrocytoma Cells” value was found to be 100%.
For the compound `CC(=O)N(c1cc(F)cc(F)c1)c1cc(NC(=O)Cc2c(C)cccc2C)ccn1` [Example 85, N-(3,5-difluorophenyl)-N-{4-[2-(2,6-dimethylphenyl)acetamido]pyridin-2-yl}acetamide], on human P2X4, the “Human P2X4 HEK Cells” value was 98% and the half-inhibitory concentration (IC50) is 251 nM. Moreover, on rat P2X4, the IC50 was determined as 229 nM and the “Rat P2X4 1321N1 Astrocytoma Cells” value was determined as 97%.
As for `CC(=O)N(c1cc(F)cc(F)c1)c1cc(NC(=O)Cc2ccccc2Cl)ccn1` [Example 86, N-{4-[2-(2-chlorophenyl)acetamido]pyridin-2-yl}-N-(3,5-difluorophenyl)acetamide], at human P2X4, the “Human P2X4 HEK Cells” value is listed as 98% and the concentration for half-maximal inhibition (IC50) worked out at 196 nM. At rat P2X4, the IC50 was determined as 393 nM and the “Rat P2X4 1321N1 Astrocytoma Cells” value is 98%.
As for `CC(=O)N(c1cc(F)cc(F)c1)c1cc(NC(=O)Cc2ccc(F)cc2Cl)ccn1` [Example 87, N-{4-[2-(2-chloro-4-fluorophenyl)acetamido]pyridin-2-yl}-N-(3,5-difluorophenyl)acetamide], at human P2X4, the “Human P2X4 HEK Cells” value amounted to 98% and the half-maximal inhibitory concentration (IC50) turned out to be 313 nM. On rat P2X4, the IC50 worked out at 983 nM and the “Rat P2X4 1321N1 Astrocytoma Cells” value turned out to be 94%.
As to `CC(=O)N(c1cc(F)cc(F)c1)c1cc(NC(=O)Cc2cccc(F)c2Cl)ccn1` [Example 88, N-{4-[2-(2-chloro-3-fluorophenyl)acetamido]pyridin-2-yl}-N-(3,5-difluorophenyl)acetamide], on human P2X4, the “Human P2X4 HEK Cells” value is given as 97% and the IC50 was determined as 198 nM. Besides, at rat P2X4, the IC50 was 451 nM and the “Rat P2X4 1321N1 Astrocytoma Cells” value is given as 100%.
On to `CC(=O)N(c1cc(F)cc(F)c1)c1cc(NC(=O)Cc2c(Cl)cccc2Cl)ccn1` [Example 89, N-{4-[2-(2,6-dichlorophenyl)acetamido]pyridin-2-yl}-N-(3,5-difluorophenyl)acetamide], for which, at human P2X4, the “Human P2X4 HEK Cells” value is 99% and the IC50 came to 169 nM. Besides, on rat P2X4, the half-maximal inhibitory concentration (IC50) was found to be 103 nM and the “Rat P2X4 1321N1 Astrocytoma Cells” value turned out to be 98%.
The matching figures for `CC(=O)N(c1cc(F)cc(F)c1)c1cc(NC(=O)Cc2c(Cl)cc(F)cc2Cl)ccn1` [Example 90, N-{4-[2-(2,6-dichloro-4-fluorophenyl)acetamido]pyridin-2-yl}-N-(3,5-difluorophenyl)acetamide]: 98%, 272 nM, 110 nM and 97%.
The like results for `CC(=O)N(c1cc(F)cc(F)c1)c1cc(NC(=O)Cc2ccccc2OC(F)(F)F)ccn1` [Example 91, N-(3,5-difluorophenyl)-N-(4-{2-[2-(trifluoromethoxy)phenyl]acetamido}pyridin-2-yl)acetamide] were, in that order, 98%, 345 nM, 1630 nM and 100%.
`COc1cccc(N(C(C)=O)c2cc(NC(=O)Cc3ccccc3Cl)ccn2)c1` [Example 100, N-{4-[2-(2-chlorophenyl)acetamido]pyridin-2-yl}-N-(3-methoxyphenyl)acetamide]: on human P2X4, the “Human P2X4 HEK Cells” value is on record as 98% and the IC50 is 408 nM. On rat P2X4, the IC50 is 965 nM and the “Rat P2X4 1321N1 Astrocytoma Cells” value was 98%.
As to `COc1cccc(N(C(C)=O)c2cc(NC(=O)Cc3cccc(F)c3Cl)ccn2)c1` [Example 101, N-{4-[2-(2-chloro-3-fluorophenyl)acetamido]pyridin-2-yl}-N-(3-methoxyphenyl)acetamide], at human P2X4, the “Human P2X4 HEK Cells” value is on record as 97% and the IC50 turned out to be 406 nM. Besides, on rat P2X4, the IC50 worked out at 971 nM and the “Rat P2X4 1321N1 Astrocytoma Cells” value is 100%.
As to `CC(=O)N(c1cc(NC(=O)Cc2ccccc2Cl)ccn1)c1cc(F)ccc1Cl` [Example 111, N-(2-chloro-5-fluorophenyl)-N-{4-[2-(2-chlorophenyl)acetamido]pyridin-2-yl}acetamide], on human P2X4, the “Human P2X4 HEK Cells” value worked out at 96% and the IC50 amounted to 204 nM. Besides, at rat P2X4, the IC50 was determined as 320 nM and the “Rat P2X4 1321N1 Astrocytoma Cells” value is given as 100%.
For the compound `CC(=O)N(c1cc(NC(=O)Cc2ccc(F)cc2Cl)ccn1)c1cc(F)ccc1Cl` [Example 112, N-(2-chloro-5-fluorophenyl)-N-{4-[2-(2-chloro-4-fluorophenyl)acetamido]pyridin-2-yl}acetamide], on human P2X4, the “Human P2X4 HEK Cells” value was determined as 96% and the concentration for half-maximal inhibition (IC50) was 403 nM. For the same compound, on rat P2X4, the 50% inhibitory concentration (IC50) worked out at 408 nM and the “Rat P2X4 1321N1 Astrocytoma Cells” value is on record as 97%.
The like results for `CC(=O)N(c1cc(NC(=O)Cc2cccc(F)c2Cl)ccn1)c1cc(F)ccc1Cl` [Example 113, N-(2-chloro-5-fluorophenyl)-N-{4-[2-(2-chloro-3-fluorophenyl)acetamido]pyridin-2-yl}acetamide] were, in that order, 97%, 286 nM, 567 nM and 100%.
The like results for `CC(=O)N(c1cc(NC(=O)Cc2c(Cl)cccc2Cl)ccn1)c1cc(F)ccc1Cl` [Example 114, N-(2-chloro-5-fluorophenyl)-N-{4-[2-(2,6-dichlorophenyl)acetamido]pyridin-2-yl}acetamide] were, in that order, 97%, 256 nM, 181 nM and 99%.
